According to patent publication US8299077B2 (Roche Palo Alto LLC, priority 2009, dated 2012):

Tested on: B cell receptor-mediated activation of B cells in human blood (CD69 expression)
Assay: Inhibition of B cell activation in whole blood measured by CD69 expression
Format: cell-based
Settings: anti-IgM stimulation, 20 h, 50% decrease of CD69-positive cells that are also CD20-positive
Method: Inhibition of B Cell Activation in Whole Blood Measured by CD69 Expression
A procedure to test the ability of Btk inhibitors to suppress B cell receptor-mediated activation of B cells in human blood is as follows:
Human whole blood (HWB) is obtained from healthy volunteers, with the following restrictions: 24 hr drug-free, non-smokers. Blood is collected by venipuncture into Vacutainer tubes anticoagulated with sodium heparin. Test compounds are diluted to ten times the desired starting drug concentration in PBS (20×), followed by three-fold serial dilutions in 10% DMSO in PBS to produce a nine point dose-response curve. 5.5 μl of each compound dilution is added in duplicate to a 2 ml 96-well V bottom plate (Analytical Sales and Services, #59623-23); 5.5 μl of 10% DMSO in PBS is added to control and no-stimulus wells. HWB (100 μl) is added to each well, and after mixing the plates are incubated at 37 C, 5% CO2, 100% humidity for 30 minutes. Goat F(ab′)2 anti-human IgM (Southern Biotech, #2022-14) (10 μl of a 500 μg/ml solution, 50 μg/ml final concentration) is added to each well (except the no-stimulus wells) with mixing and the plates are incubated for an additional 20 hours.
At the end of the 20 hour incubation, samples are incubated with florescent-probe-labeled anti-bodies (15 μl PE Mouse anti-Human CD20, BD Pharmingen, #555623, and/or 20 ul APC Mouse anti-Human CD69, BD Pharmingen #555533) for 30 minutes, at 37 C, 5% CO2, 100% humidity. Included are induced control, unstained and single stains for compensation adjustments and initial voltage settings. Samples are then lysed with 1 ml of 1× Pharmingen Lyse Buffer (BD Pharmingen #555899), and plates are centrifuged at 1800 rpm for 5 minutes. Supernatants are removed via suction and the remaining pellets are lysed again with another 1 ml of 1× Pharmingen Lyse Buffer, and plates are spun down as before. Supernatants are aspirated and remaining pellets are washed in FACs buffer (PBS+1% FBS). After a final spin, the supernantants are removed and pellets are resuspended in 180 μl of FACs buffer. Samples are transferred to a 96 well plate suitable to be run on the HTS 96 well system on the BD LSR II flow cytometer.
Using appropriate excitation and emission wavelengths for the fluorophores used, data are acquired and percent positive cell values are obtained using Cell Quest Software. Results are initially analyzed by FACS analysis software (Flow Jo). […] The IC50 values are calculated using XLfit software version 3, equation 201.

IC50	Compound
258 nM	Cn1cc(-c2cccc(-n3ncc4cc(C(C)(C)C)cc(F)c4c3=O)c2CO)cc(Nc2ccc(C(=O)O)cn2)c1=O [Example I-34, 6-{5-[3-(6-tert-Butyl-8-fluoro-1-oxo-1H-phthalazin-2-yl)-2-hydroxymethyl-phenyl]-1-methyl-2-oxo-1,2-dihydro-pyridin-3-ylamino}-nicotinic acid]
11 nM	CN1CCN(c2ccc(Nc3cc(-c4cccc(-n5ccc6cc(N(C)C)cc(F)c6c5=O)c4CO)cn(C)c3=O)nc2)CC1 [Example I-4, 6-Dimethylamino-8-fluoro-2-(2-hydroxymethyl-3-{1-methyl-5-[5-(4-methyl-piperazin-1-yl)-pyridin-2-ylamino]-6-oxo-1,6-dihydro-pyridin-3-yl}-phenyl)-2H-isoquinolin-1-one]
31 nM	Cn1cc(-c2cccc(-n3ccc4cc(C(C)(C)O)cc(F)c4c3=O)c2CO)nc(Nc2cnn(CC(F)F)c2)c1=O [Example I-80, 2-(3-{6-[1-(2,2-Difluoro-ethyl)-1H-pyrazol-4-ylamino]-4-methyl-5-oxo-4,5-dihydro-pyrazin-2-yl}-2-hydroxymethyl-phenyl)-8-fluoro-6-(1-hydroxy-1-methyl-ethyl)-2H-isoquinolin-1-one]
40 nM	Cn1cc(-c2cccc(-n3ccc4cc(C5CC5)cc(F)c4c3=O)c2CO)cc(Nc2ccc(C(C)(C)N)cn2)c1=O [Example I-76, 2-(3-{5-[5-(1-Amino-1-methyl-ethyl)-pyridin-2-ylamino]-1-methyl-6-oxo-1,6-dihydro-pyridin-3-yl}-2-hydroxymethyl-phenyl)-6-cyclopropyl-8-fluoro-2H-isoquinolin-1-one]
824 nM	Cn1cc(-c2cccc(-n3ncc4cc(C(C)(C)C)cc(F)c4c3=O)c2CO)cc(NC2=NCCO2)c1=O [Example I-40, 6-tert-Butyl-2-{3-[5-(4,5-dihydro-oxazol-2-ylamino)-1-methyl-6-oxo-1,6-dihydro-pyridin-3-yl]-2-hydroxymethyl-phenyl}-8-fluoro-2H-phthalazin-1-one]
33 nM	CNC(=O)C(C)(C)c1ccc(Nc2cc(-c3cccc(-n4ccc5cc(C6CC6)cc(F)c5c4=O)c3CO)cn(C)c2=O)nc1 [Example I-69, 2-(6-{5-[3-(6-Cyclopropyl-8-fluoro-1-oxo-1H-isoquinolin-2-yl)-2-hydroxymethyl-phenyl]-1-methyl-2-oxo-1,2-dihydro-pyridin-3-ylamino}-pyridin-3-yl)-N-methyl-isobutyramide]
3130 nM	CC1CCN=C(Nc2cc(-c3cccc(-n4ncc5cc(C(C)(C)C)cc(F)c5c4=O)c3CO)cn(C)c2=O)O1 (stereo not shown) [Example I-49, 6-tert-Butyl-8-fluoro-2-{2-hydroxymethyl-3-[1-methyl-5-(6-methyl-5,6-dihydro-4H-[1,3]oxazin-2-ylamino)-6-oxo-1,6-dihydro-pyridin-3-yl]-phenyl}-2H-phthalazin-1-one]
44 nM	Cn1cc(-c2cccc(-n3ncc4cc(C(C)(C)C)cc(F)c4c3=O)c2CO)cc(Nc2ccn(C(C)(C)C)c(=O)n2)c1=O [Example I-50, 6-tert-Butyl-2-{3-[5-(1-tert-butyl-2-oxo-1,2-dihydro-pyrimidin-4-ylamino)-1-methyl-6-oxo-1,6-dihydro-pyridin-3-yl]-2-hydroxymethyl-phenyl}-8-fluoro-2H-phthalazin-1-one]
28 nM	Cn1cc(-c2cccc(-n3ncc4cc(C(C)(C)C)cc(F)c4c3=O)c2CO)cc(Nc2ccc(C(C)(C)N)cn2)c1=O [Example I-35, 2-(3-{5-[5-(1-Amino-1-methyl-ethyl)-pyridin-2-ylamino]-1-methyl-6-oxo-1,6-dihydro-pyridin-3-yl}-2-hydroxymethyl-phenyl)-6-tert-butyl-8-fluoro-2H-phthalazin-1-one]
23 nM	Cn1cc(-c2cccc(-n3ccc4cc(C5CC5)cc(F)c4c3=O)c2CO)cc(Nc2ccc(C(=O)N3CCOCC3)cn2)c1=O [Example I-51, 6-Cyclopropyl-8-fluoro-2-(2-hydroxymethyl-3-{1-methyl-5-[5-(morpholine-4-carbonyl)-pyridin-2-ylamino]-6-oxo-1,6-dihydro-pyridin-3-yl}-phenyl)-2H-isoquinolin-1-one]
